Measured values as given in patent US8414878B2, “Irilis biopreparation based on bacillus-strain bacteria, bacillus subtilis and bacillus licheniformis contained therein” (priority 2005, dated 2013).

Columns and labels:
[1] = system: B. subtilis VKPMB-8611; assay: Sensitivity to antibiotics, delay zones of culture growth; format: cell-based, Bacillus subtilis; conditions: strain B. subtilis VKPMB-8611
[2] = system: B. licheniformis VKPM B-8610; assay: as above; format: cell-based, Bacillus licheniformis; conditions: strain B. licheniformis VKPM B-8610

Row | Compound | Diameter of delay zones of cultures growth [1] | Diameter of delay zones of cultures growth [2]
1 | NCC[C@H](O)C(=O)N[C@@H]1C[C@H](N)[C@@H](O[C@H]2O[C@H](CN)[C@@H](O)[C@H](O)[C@H]2O)[C@H](O)[C@H]1O[C@H]1O[C@H](CO)[C@@H](O)[C@H](N)[C@H]1O [Amicacin] | 22 ± 0.3 mm | 17 + 0.2 mm
2 | CC1(C)S[C@@H]2[C@H](NC(=O)[C@H](N)c3ccc(O)cc3)C(=O)N2[C@H]1C(=O)O [Amoscipillin] | 19 ± 0.2 mm | 16 + 0.1 mm
3 | CC1(C)S[C@@H]2[C@H](NC(=O)[C@H](N)c3ccccc3)C(=O)N2[C@H]1C(=O)O [Ampicillin] | 11 ± 0.2 mm | 0 mm
4 | CC1(C)S[C@@H]2[C@H](NC(=O)[C@H](NC(=O)N3CCNC3=O)c3ccccc3)C(=O)N2[C@H]1C(=O)O [Azlocillin] | 19 ± 0.1 mm | 16 + 0.1 mm
5 | CC1(C)S[C@@H]2[C@H](NC(=O)Cc3ccccc3)C(=O)N2[C@H]1C(=O)O [Benzylpenicillin] | 7 ± 0.1 mm | 3 ± 0.2 mm
6 | CC1(C)S[C@@H]2[C@H](NC(=O)C(C(=O)O)c3ccccc3)C(=O)N2[C@H]1C(=O)O (stereo partly drawn) [Carbenicillin] | 23 ± 0.5 mm | 20 + 0.1 mm
7 | Cn1nnnc1SCC1=C(C(=O)O)N2C(=O)[C@@H](NC(=O)[C@H](O)c3ccccc3)[C@H]2SC1 [Cefamandole] | 35 ± 0.3 mm | 15 + 0.1 mm
8 | Cc1nnc(SCC2=C(C(=O)O)N3C(=O)[C@@H](NC(=O)Cn4cnnn4)[C@H]3SC2)s1 [Cefazolin] | 25 ± 0.2 mm | 19 + 0.2 mm
9 | CCN1CCN(C(=O)N[C@@H](C(=O)N[C@@H]2C(=O)N3C(C(=O)O)=C(CSc4nnnn4C)CS[C@H]23)c2ccc(O)cc2)C(=O)C1=O [Cefoperazone] | 15 ± 0.2 mm | 13 + 0.1 mm
10 | CO/N=C(\C(=O)N[C@@H]1C(=O)N2C(C(=O)O)=C(COC(C)=O)CS[C@H]12)c1csc(N)n1 [Cefotaxime] | 15 ± 0.1 mm | 9 + 0.1 mm
11 | CO[C@@]1(NC(=O)Cc2cccs2)C(=O)N2C(C(=O)O)=C(COC(N)=O)CS[C@@H]21 [Cefoxitin] | 18 ± 0.1 mm | 13 + 0.1 mm
12 | CC(C)(O/N=C(\C(=O)N[C@@H]1C(=O)N2C(C(=O)[O-])=C(C[n+]3ccccc3)CS[C@H]12)c1csc(N)n1)C(=O)O [Ceftazidime] | 6 ± 0.3 mm | 13 + 02 mm
13 | CO/N=C(\C(=O)N[C@@H]1C(=O)N2C(C(=O)O)=CCS[C@H]12)c1csc(N)n1 [Ceftizoxime] | 3 ± 0.1 mm | 11 ± 0.1 mm
14 | CO/N=C(\C(=O)N[C@@H]1C(=O)N2C(C(=O)O)=C(CSc3nc(=O)c(=O)[nH]n3C)CS[C@H]12)c1csc(N)n1 [Ceftriaxone] | 20 + 0.4 mm | 12 + 02 mm
15 | CO/N=C(\C(=O)N[C@@H]1C(=O)N2C(C(=O)O)=C(COC(N)=O)CS[C@H]12)c1ccco1 [Cefuroxime] | 2 ± 0.1 mm | 3 ± 0.1 mm
16 | CC(=O)OCC1=C(C(=O)O)N2C(=O)[C@@H](NC(=O)Cc3cccs3)[C@H]2SC1 [Cephalothin] | 35 ± 0.1 mm | 21 + 0.3 mm
17 | O=C(N[C@H](CO)[C@H](O)c1ccc([N+](=O)[O-])cc1)C(Cl)Cl [Chloramphenicol] | 18 ± 0.3 mm | 10 ± 0.1 mm
18 | CCC[C@@H]1C[C@@H](C(=O)N[C@@H]([C@H]2O[C@H](SC)[C@H](O)[C@@H](O)[C@H]2O)[C@H](C)Cl)N(C)C1 [Clindamycin] | 9 + 0.2 mm | 12 + 0.1 mm

Row | Compound | Diameter of delay zones of cultures growth [1] | Diameter of delay zones of cultures growth [2]
19 | C[C@@H](O)[C@H]1C(=O)N2C(C(=O)O)=C(SCCN=CN)C[C@H]12 [Imipenems] | 38 ± 0.2 mm | 30 + 0.1 mm
20 | NC[C@H]1O[C@H](O[C@H]2[C@H](O)[C@@H](O[C@H]3O[C@H](CO)[C@@H](O)[C@H](N)[C@H]3O)[C@H](N)C[C@@H]2N)[C@H](O)[C@@H](O)[C@@H]1O [Kanamycin] | 22 ± 0.2 mm | 21 + 0.1 mm
21 | COc1cccc(OC)c1C(=O)N[C@@H]1C(=O)N2[C@@H]1SC(C)(C)[C@@H]2C(=O)O [Methicillin] | 20 ± 0.1 mm | 10 ± 0D
22 | CC1(C)S[C@@H]2[C@H](NC(=O)[C@H](NC(=O)N3CCN(S(C)(=O)=O)C3=O)c3ccccc3)C(=O)N2[C@H]1C(=O)O [Mezlocillin] | 21 ± 0.2 mm | 15 + 0.2 mm
23 | CO[C@@]1(NC(=O)C(C(=O)O)c2ccc(O)cc2)C(=O)N2C(C(=O)O)=C(CSc3nnnn3C)CO[C@@H]21 (stereo partly drawn) [Mocsalactam] |  | 12 + 03 mm
24 | CCn1cc(C(=O)O)c(=O)c2ccc(C)nc21 [Nalidixic acid] | 21 ± 0.1 mm | 15 + 0.1 mm
25 | O=C1CN(/N=C/c2ccc([N+](=O)[O-])o2)C(=O)N1 [Nitrofurantoin] | 15 + 0.2 mm | 20 + 0.1 mm
26 | CCn1cc(C(=O)O)c(=O)c2cc(F)c(N3CCNCC3)cc21 [Norfloxacin] | 24 ± 0.2 mm | 25 + 0.2 mm
27 | Cc1onc(-c2ccccc2)c1C(=O)N[C@@H]1C(=O)N2[C@@H]1SC(C)(C)[C@@H]2C(=O)O [Oxacillin] | 15 ± 0.3 mm | 11 + 0.1 mm
28 | CCN1CCN(C(=O)N[C@@H](C(=O)N[C@@H]2C(=O)N3[C@@H]2SC(C)(C)[C@@H]3C(=O)O)c2ccccc2)C(=O)C1=O [Piperacillin] | 15 + 03 mm | 11 + 0.1 mm
29 | CN(C)[C@@H]1C(O)=C(C(N)=O)C(=O)[C@@]2(O)C(O)=C3C(=O)c4c(O)cccc4[C@@](C)(O)[C@H]3C[C@@H]12 [Tetracycline] | 26 + 0.1 mm | 24 + 0.1 mm
30 | CC1(C)S[C@@H]2[C@H](NC(=O)[C@H](C(=O)O)c3ccsc3)C(=O)N2[C@H]1C(=O)O [Ticarcillin] | 25 ± 0.4 mm | 21 + 0.2 mm
31 | NC[C@H]1O[C@H](O[C@H]2[C@H](O)[C@@H](O[C@H]3O[C@H](CO)[C@@H](O)[C@H](N)[C@H]3O)[C@H](N)C[C@@H]2N)[C@H](N)C[C@@H]1O [Tobramycin] | 25 ± 0.1 mm | 20 + 0.2 mm
32 | COc1cc(Cc2cnc(N)nc2N)cc(OC)c1OC [Ttrimethoprim] | 23 ± 0.1 mm | 25 + 0.2 mm
33 | CN[C@H](CC(C)C)C(=O)N[C@H]1C(=O)N[C@@H](CC(N)=O)C(=O)N[C@H]2C(=O)N[C@H]3C(=O)N[C@H](C(=O)N[C@H](C(=O)O)c4cc(O)cc(O)c4-c4cc3ccc4O)[C@H](O)c3ccc(c(Cl)c3)Oc3cc2cc(c3O[C@@H]2O[C@H](CO)[C@@H](O)[C@H](O)[C@H]2O[C@H]2C[C@](C)(N)[C@H](O)[C@H](C)O2)Oc2ccc(cc2Cl)[C@H]1O [Vancomycin] | 12 ± 0.1 mm | 10 ± 0.1 mm
34 | Gentamicin | 25 ± 0.3 mm | 19 + 0.2 mm
35 | Polymyxin E | 11 + 0.1 mm | 10 + 0.2 mm
